Measured values from patent US20100286076A1, “ECTOPARASITICIDAL METHODS AND FORMULATIONS” (priority 2009, published 2010).

How the values were obtained:
[1] = test system: adult cat flea, Ctenocephalides felis; assay: Oral administration per os to dogs, experimental adult cat flea infestation, comb counts; type: in vivo
Description: Oral administration per os to dogs. Given the above data, investigation into oral efficacy in dogs was begun. The investigation was conducted to evaluate 1) efficacy for a point dose of 30 mg/kg, against experimental, concurrent infestations with the adult cat flea, Ctenocephalides felis; adult stage American dog ticks, Dermacentor variabilis; and adult stage kennel ticks, Rhipicephalus sanguineus; 2) plasma concentrations of the 30 mg/kg treated dogs; and 3) efficacy for point dosages of either 50 mg/kg or 100 mg/kg, against experimental infestations with adult stage kennel ticks, R. sanguineus.
Sixteen dogs were selected for two groups of eight dogs (4 male: 4 female) per group. One treatment group received spinetoram, while the other group was left untreated. The dogs were housed individually in concrete-floored chain-link kennels both inside and outside. During the study period the dogs were fed a dry dog chow, except for the day of treatment (day 0) when they received wet canned food. The dogs had ad libitum access to water.
The first group on day 0 received one or more gelatin capsules containing spinetoram powder by mouth, in the amount of 30 mg/kg, while the untreated group received placebo. For the evaluation of the higher doses (50 and 100 mg/kg) for efficacy against R. sanguineus, dogs from the 30 mg/kg group were re-dosed at the higher levels approximately 2.5 months after the low dose administration, once the flea efficacy data had been collected.
Each dog was experimentally infested with about 100 adult fleas, and 50 ticks of each species on test days—1,5,12,19, 28, 35, and 42, with additional flea infestations conducted on days 49 and 56. Knockdown assessments against both ticks and fleas were conducted 24 hours after dosing. All subsequent counts were conducted 48 hours after infestation. For the higher doses, the dogs were infested with around 50 R. sanguineus ticks one day before re-dosing and again 5 days post re-dosing, with comb counts conducted approximately 24 hours thereafter. Knockdown activity (Day 1) was determined using 24 hr post-dosing comb counts. For all post-treatment residual tick counts, the comb count occurred 48 hours post infestation. Blood samples were drawn on days 14, 21, 28, and 35 to determine concentration of spinetoram in plasma.

House Fly = assay: Adult House Fly Assay (AhsF), feeding on compound-soaked dental wicks, 24 h mortality; parameters: species or system Musca domestica; settings: adult house flies
Description: Adult Stable or House Fly Assay (ASF, AhsF). This assay is conducted essentially as described in White, W. H., S. M. Bauer, X. Zhao et al., Comparison of in vitro and in vivo ectoparasiticide activity of an experimental benzimidazole-carbamate with permethrin and amitraz, J. Med. Entomol. 42, 207-211 (2005); and White, W. H., C. M. McCoy, J. A. Meyer et al., Knockdown and mortality comparisons among spinosad-, imidacloprid-, and methomyl-containing baits against susceptible Musca domestica (Diptera: Muscidae) under laboratory conditions, J. Econ. Entomol. 100, 155-163 (2007).
Test material is formulated in DMSO at 10 mM. Doubling dilutions in like solvent are made to yield 10 testing levels. Materials are diluted in either bovine serum (stable flies) or 5% glucose solution (house flies) to obtain desired exposure concentrations from 200-0.39 μM. Approximately 3 ml of diluted test material is placed into a test tube (n=3 per test level) and a dental wick is used to absorb fluid. One dental wick is placed into a small weigh boat inside of a 100 mm Petri dish. Approximately 10 mixed-sex adult flies are anesthetized using carbon dioxide and counted into each dish. Dishes are incubated at 27° C. and 50-70% relative humidity. Flies recover from anesthesia and feed on compound-soaked dental wicks. After 24 h, live/dead flies are enumerated. Nonlinear regression is used to model dose-mortality relationship and obtain relative potency (LD50) data compared to contemporaneous controls (solvent-only or permethrin).

Spinetoram
geometric mean percent flea reduction, Day 7 ([1]; oral 30 mg/kg, Day 7): 100%
geometric mean percent flea reduction, Day 14 ([1]; oral 30 mg/kg, Day 14): 100%
geometric mean percent flea reduction, Day 21 ([1]; oral 30 mg/kg, Day 21): 99.5%
geometric mean percent flea reduction, Day 30 ([1]; oral 30 mg/kg, Day 30): 100%
geometric mean percent flea reduction, Day 37 ([1]; oral 30 mg/kg, Day 37): 98.9%
geometric mean percent flea reduction, Day 44 ([1]; oral 30 mg/kg, Day 44): 99.7%
geometric mean percent flea reduction, Day 51 ([1]; oral 30 mg/kg, Day 51): 98.2%
geometric mean percent flea reduction, Day 58 ([1]; oral 30 mg/kg, Day 58): 96.9%
geometric mean percent flea reduction, Knockdown ([1]; oral 30 mg/kg, Knockdown): 99.7%
residual control ([1]; oral point dose 30 mg/kg, extends beyond 8 weeks): > 97%
EC50 (House Fly; 24 h, 5% glucose solution, read-out: Potency (24 h EC50 μM)): 2.18 µM
Spinetoram/Spinosad Potency Ratio (House Fly; 24 h EC50): 5.5
